Source: patent US10927106B2, “Benzothiazole derivatives as DYRK1 inhibitors” (PHARMASUM THERAPEUTICS AS, priority 2017, dated 2021)

Experiments:
Assay in all cases: Kinase profiling, 33P ATP filter binding assay
Assay type in all cases: biochemical
Conditions in all cases: 1 micromolar inhibitor concentration, read-out: percentage inhibition
[1] = target: HIPK3 (Homo sapiens (Human), UniProt Q9H422)
[2] = target: ABL (Homo sapiens (Human), UniProt P00519)
[3] = target: ULK2 (Homo sapiens (Human), UniProt Q8IYT8)
[4] = target: MINK1 (Homo sapiens (Human), UniProt Q8N4C8)
[5] = target: MST2 (Homo sapiens (Human), UniProt Q13188)
[6] = target: TTBK1 (Homo sapiens (Human), UniProt Q5TCY1)
[7] = target: TGFBR1 (Homo sapiens (Human), UniProt P36897)
[8] = target: ASK1 (Homo sapiens (Human), UniProt Q99683)
[9] = target: MKK6 (Homo sapiens (Human), UniProt P52564)
Sequence of MKK6 (P52564 whole entry, species assumed): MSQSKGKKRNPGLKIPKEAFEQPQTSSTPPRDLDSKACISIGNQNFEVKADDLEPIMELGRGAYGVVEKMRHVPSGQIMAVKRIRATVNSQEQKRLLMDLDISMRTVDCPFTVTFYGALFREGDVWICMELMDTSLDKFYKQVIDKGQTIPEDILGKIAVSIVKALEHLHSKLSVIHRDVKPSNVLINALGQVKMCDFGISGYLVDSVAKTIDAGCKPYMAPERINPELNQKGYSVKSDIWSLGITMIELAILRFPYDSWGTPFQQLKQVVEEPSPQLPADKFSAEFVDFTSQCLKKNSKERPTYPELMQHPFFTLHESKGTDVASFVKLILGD

[10] = target: MARK3 (Homo sapiens (Human), UniProt P27448)
[11] = target: Aurora B (Homo sapiens (Human), UniProt Q96GD4)
[12] = target: PRAK (Homo sapiens (Human), UniProt Q8IW41)
[13] = target: TSSK1 (Homo sapiens (Human), UniProt Q9BXA7)
[14] = target: CDK9-Cyclin T1 (Homo sapiens (Human), UniProt P50750)
[15] = target: CSK (Homo sapiens (Human), UniProt P41240)
Sequence of CSK (P41240 whole entry, species assumed): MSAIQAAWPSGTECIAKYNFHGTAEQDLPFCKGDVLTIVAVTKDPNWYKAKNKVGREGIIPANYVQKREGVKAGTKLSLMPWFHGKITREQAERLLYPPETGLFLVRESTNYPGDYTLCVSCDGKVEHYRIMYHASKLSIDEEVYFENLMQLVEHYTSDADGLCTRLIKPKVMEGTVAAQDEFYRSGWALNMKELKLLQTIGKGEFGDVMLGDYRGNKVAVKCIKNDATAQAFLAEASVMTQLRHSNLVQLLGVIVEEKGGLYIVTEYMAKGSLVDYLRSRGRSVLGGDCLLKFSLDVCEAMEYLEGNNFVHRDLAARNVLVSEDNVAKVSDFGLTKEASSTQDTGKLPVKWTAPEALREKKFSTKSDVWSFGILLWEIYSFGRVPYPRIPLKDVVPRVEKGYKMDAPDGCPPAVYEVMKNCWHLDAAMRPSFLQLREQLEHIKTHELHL

[16] = target: LKB1 (Homo sapiens (Human), UniProt Q15831)
[17] = target: TIE2 (Homo sapiens (Human), UniProt Q02763)
[18] = target: PIM3 (Homo sapiens (Human), UniProt Q86V86)
[19] = target: TAK1 (Homo sapiens (Human), UniProt O43318)
Sequence of TAK1 (O43318 1-303): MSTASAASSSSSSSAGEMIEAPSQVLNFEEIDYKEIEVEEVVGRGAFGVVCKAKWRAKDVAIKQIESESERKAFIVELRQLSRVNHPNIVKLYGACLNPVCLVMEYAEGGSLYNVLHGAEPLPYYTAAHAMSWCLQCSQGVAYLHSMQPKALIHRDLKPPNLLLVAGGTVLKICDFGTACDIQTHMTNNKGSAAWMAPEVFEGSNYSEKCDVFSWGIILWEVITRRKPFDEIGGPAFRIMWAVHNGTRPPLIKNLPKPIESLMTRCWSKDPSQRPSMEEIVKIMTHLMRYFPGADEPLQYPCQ

[20] = target: CK1y2 (Homo sapiens (Human), UniProt P78368)
[21] = target: ERK1 (Homo sapiens (Human), UniProt P27361)
[22] = target: SGK1 (Homo sapiens (Human), UniProt O00141)
[23] = target: PKD1 (Homo sapiens (Human), UniProt Q15139)
[24] = target: MLK3 (Homo sapiens (Human), UniProt Q16584)
[25] = target: BRSK2 (Homo sapiens (Human), UniProt Q8IWQ3)
[26] = target: IR (Homo sapiens (Human), UniProt P06213)
Sequence of IR (P06213 28-1382): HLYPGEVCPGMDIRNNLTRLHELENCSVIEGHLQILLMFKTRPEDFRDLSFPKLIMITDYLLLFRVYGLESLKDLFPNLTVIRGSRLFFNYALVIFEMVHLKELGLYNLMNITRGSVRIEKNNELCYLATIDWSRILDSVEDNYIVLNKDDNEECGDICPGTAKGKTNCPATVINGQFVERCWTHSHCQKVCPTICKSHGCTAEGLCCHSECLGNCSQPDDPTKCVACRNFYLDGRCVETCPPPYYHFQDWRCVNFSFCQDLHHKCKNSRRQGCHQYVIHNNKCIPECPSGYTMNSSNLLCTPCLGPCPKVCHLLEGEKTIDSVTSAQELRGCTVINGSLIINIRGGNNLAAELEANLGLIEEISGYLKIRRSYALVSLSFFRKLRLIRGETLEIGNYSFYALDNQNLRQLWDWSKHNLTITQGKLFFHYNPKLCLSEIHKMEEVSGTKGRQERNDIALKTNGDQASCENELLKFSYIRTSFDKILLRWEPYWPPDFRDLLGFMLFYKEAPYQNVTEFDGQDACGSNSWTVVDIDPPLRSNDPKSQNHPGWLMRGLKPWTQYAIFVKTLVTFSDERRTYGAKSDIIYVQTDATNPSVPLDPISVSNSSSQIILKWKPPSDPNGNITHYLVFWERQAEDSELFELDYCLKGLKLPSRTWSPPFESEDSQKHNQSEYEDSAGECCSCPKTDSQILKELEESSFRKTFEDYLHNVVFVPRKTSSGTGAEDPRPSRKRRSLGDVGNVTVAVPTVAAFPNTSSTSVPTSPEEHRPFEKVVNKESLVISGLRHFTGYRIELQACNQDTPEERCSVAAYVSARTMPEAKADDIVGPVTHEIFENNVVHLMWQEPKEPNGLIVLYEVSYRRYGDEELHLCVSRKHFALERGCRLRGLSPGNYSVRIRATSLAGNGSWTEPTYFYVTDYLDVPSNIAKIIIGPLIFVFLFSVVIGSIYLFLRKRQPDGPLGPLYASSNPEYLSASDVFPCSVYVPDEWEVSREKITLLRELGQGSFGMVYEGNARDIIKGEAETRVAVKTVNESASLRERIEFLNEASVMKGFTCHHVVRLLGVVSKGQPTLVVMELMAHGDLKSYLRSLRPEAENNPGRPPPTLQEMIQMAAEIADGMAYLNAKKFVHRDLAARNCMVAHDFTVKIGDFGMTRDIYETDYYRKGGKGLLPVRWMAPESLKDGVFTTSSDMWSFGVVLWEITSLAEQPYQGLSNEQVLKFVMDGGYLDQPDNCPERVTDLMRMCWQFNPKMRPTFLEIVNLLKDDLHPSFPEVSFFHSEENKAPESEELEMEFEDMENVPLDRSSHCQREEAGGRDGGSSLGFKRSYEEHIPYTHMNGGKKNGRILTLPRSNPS

[27] = target: RSK2 (Homo sapiens (Human), UniProt P51812)
[28] = target: HER4 (Homo sapiens (Human), UniProt Q15303)
[29] = target: MNK1 (Homo sapiens (Human), UniProt Q9BUB5)
[30] = target: ERK2 (Homo sapiens (Human), UniProt P28482)
[31] = target: SmMLCK (Homo sapiens (Human), UniProt Q15746)
Procedure: The determination of protein kinase inhibition was performed at the International Centre for Kinase Profiling at the University of Dundee, UK. […] The ATP concentrations were at or below the calculated Km for ATP for each particular kinase.

[32] = target: IGF-1R (Homo sapiens (Human), UniProt P08069)
Sequence of IGF-1R (P08069 31-1367, species assumed): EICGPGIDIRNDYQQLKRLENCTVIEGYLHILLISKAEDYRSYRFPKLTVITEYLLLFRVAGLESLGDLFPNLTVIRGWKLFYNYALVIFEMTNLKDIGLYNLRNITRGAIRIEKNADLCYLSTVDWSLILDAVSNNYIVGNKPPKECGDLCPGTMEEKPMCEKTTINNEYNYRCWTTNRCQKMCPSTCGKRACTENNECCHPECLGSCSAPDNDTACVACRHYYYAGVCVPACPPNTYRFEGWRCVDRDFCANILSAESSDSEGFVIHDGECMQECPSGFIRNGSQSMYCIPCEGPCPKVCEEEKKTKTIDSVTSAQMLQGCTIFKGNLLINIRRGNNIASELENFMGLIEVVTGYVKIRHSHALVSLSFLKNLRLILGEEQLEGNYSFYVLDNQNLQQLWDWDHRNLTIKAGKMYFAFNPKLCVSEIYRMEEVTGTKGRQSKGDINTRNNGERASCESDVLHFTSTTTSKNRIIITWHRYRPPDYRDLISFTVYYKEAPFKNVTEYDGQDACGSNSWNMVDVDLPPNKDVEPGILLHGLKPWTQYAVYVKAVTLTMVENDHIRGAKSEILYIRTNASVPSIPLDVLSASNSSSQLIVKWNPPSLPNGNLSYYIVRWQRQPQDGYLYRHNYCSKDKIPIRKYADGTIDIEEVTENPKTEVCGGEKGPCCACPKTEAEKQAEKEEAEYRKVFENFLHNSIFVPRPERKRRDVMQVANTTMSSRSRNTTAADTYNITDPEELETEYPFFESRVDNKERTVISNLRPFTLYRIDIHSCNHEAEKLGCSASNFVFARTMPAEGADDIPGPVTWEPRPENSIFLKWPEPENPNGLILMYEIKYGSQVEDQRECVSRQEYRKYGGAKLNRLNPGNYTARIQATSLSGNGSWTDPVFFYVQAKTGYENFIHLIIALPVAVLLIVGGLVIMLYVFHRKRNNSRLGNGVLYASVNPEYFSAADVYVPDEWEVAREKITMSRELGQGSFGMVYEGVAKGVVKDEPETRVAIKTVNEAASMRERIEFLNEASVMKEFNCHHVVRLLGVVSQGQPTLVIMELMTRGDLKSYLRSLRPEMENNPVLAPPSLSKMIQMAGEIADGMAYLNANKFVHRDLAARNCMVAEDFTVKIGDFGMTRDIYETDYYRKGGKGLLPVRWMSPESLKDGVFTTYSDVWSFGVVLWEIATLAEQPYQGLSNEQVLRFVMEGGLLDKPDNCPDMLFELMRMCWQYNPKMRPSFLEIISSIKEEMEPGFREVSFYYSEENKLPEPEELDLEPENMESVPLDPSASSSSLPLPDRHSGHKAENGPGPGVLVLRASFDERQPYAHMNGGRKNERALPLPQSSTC

[33] = target: CAMKKb (Homo sapiens (Human), UniProt Q96RR4)
[34] = target: PKBb (Homo sapiens (Human), UniProt P31751)
[35] = target: BRSK1 (Homo sapiens (Human), UniProt Q8TDC3)
Sequence of BRSK1 (Q8TDC3 whole entry, species assumed): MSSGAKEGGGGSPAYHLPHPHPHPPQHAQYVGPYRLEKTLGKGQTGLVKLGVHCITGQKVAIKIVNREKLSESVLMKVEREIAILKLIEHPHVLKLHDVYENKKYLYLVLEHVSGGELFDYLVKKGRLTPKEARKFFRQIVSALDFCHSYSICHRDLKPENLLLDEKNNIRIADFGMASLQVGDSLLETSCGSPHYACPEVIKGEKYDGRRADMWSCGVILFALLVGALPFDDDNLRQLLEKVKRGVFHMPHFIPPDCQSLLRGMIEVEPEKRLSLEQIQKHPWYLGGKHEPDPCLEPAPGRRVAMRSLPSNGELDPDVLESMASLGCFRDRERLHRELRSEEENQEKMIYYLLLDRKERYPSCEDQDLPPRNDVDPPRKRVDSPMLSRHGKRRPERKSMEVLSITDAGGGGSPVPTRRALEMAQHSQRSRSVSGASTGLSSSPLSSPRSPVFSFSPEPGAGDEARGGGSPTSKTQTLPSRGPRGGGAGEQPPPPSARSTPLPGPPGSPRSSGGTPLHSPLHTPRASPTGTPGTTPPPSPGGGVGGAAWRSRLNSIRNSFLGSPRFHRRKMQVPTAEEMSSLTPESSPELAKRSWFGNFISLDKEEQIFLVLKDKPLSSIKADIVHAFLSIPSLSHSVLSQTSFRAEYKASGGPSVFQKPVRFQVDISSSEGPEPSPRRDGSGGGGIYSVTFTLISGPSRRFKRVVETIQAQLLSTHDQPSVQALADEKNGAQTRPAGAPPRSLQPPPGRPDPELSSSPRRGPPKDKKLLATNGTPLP

[36] = target: NUAK1 (Homo sapiens (Human), UniProt O60285)
[37] = target: JNK3 (Homo sapiens (Human), UniProt P53779)
Sequence of JNK3 (P53779 whole entry, species assumed): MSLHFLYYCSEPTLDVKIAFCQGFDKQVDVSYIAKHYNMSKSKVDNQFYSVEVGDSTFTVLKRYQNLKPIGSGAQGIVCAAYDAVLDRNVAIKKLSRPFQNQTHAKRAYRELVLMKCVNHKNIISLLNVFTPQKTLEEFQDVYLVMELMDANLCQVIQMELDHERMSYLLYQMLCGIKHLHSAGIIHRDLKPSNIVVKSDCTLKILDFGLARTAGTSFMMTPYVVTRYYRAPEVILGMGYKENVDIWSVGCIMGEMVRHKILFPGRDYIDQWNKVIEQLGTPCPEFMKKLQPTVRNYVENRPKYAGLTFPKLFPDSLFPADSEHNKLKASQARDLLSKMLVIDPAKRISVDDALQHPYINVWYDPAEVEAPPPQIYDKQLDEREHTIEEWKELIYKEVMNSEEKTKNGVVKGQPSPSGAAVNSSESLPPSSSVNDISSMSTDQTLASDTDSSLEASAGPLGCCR

[38] = target: TTBK2 (Homo sapiens (Human), UniProt Q6IQ55)
[39] = target: PKCy (Homo sapiens (Human), UniProt P05129)
[40] = target: JAK2 (Homo sapiens (Human), UniProt O60674)
[41] = target: CHK1 (Homo sapiens (Human), UniProt O14757)
[42] = target: JNK2 (Homo sapiens (Human), UniProt P45984)

Measured: inhibition at 1 µM

COc1ccc2sc(-c3cncc(NC(C)=O)c3)nc2c1 [4-93, N-(5-(5-Methoxybenzo[d]thiazol-2-yl)pyridin-3-yl)acetamide]
7%: [18]
52%: [19]
1%: [10]
3%: [2]
0%: all other assays above

CS(=O)(=O)Nc1cncc(-c2nc3cc(O)ccc3s2)c1 [4-99, N-(5-(5-Hydroxybenzo[d]thiazol-2-yl)pyridin-3-yl)methanesulfonamide]
8%: [19]
7%: [22]
3%: [17]
0%: all other assays above
